Legend:
C2C12 myotubes [1] = test: Measurement of C2C12 myotube diameters; type: cell-based, murine; settings: for C26 CM-induced atrophy (myotube diameter): 10% C26 conditioned medium, FK506 1µg/mL or siFKBP12 transfection; for hypertrophy (myotube diameter): BMP6 1ng/mL as positive control
Description: When the confluence of 80-90% is reached, they are differentiated into myotubes in DMEM/2% HS medium for 4 days.
For the signaling experiments, two hours prior to treatment, the DMEM differentiation medium without serum was changed, followed by 1h of treatment with FK506 (1 µg/mL) or BMP6 (30ng/mL).
The myotubes were analyzed 48h after transfection to establish the diameters and lysates for RNA extraction.
Photographs of the myotubes were taken using 20X magnification bright field microscopy (Zeiss) and their diameter was measured using FIJI software.

tibialis anterior = settings: mice treated for 9 days; cited from earlier work
[2] = tested on: post-transplant diabetes mellitus rats; settings: 1 mg/kg/d; cited from earlier work
[3] = tested on: pGL3-BMP responsive element (BRE)-Luc; test: Luciferase assay with pGL3-BMP responsive element (BRE)-Luc reporter in C2C12 myoblasts; type: cell-based, murine; settings: FK506 1µg/mL, 5h, compared with BMP6 1ng/mL
Description: C2C12 myoblasts were transfected with the pGL3-BMP responsive element (BRE)-Luc plasmid (Addgene #45126) to measure the promoter activation by the SMAD1/5/8 proteins. The cells were treated with FK506 (1µg/mL) or BMP6 (1ng/mL) 15h posttransfection. The luminescence was measured using Dual-Luciferase Reporter Assay System (Promega) after 5h of treatment according to the manufacturer's instructions.

SMAD1/5 = test: Western blot of SMAD1/5 phosphorylation in C2C12 myotubes; type: cell-based, murine; settings: FK506 1µg/mL
Description: (§1) The myotubes were treated with 10% C26 conditioned medium (C26 CM (9)) or Activin A (1ng/mL R&D # 338-AC), FK506 (1µg/mL Cayman Chemical, #10007965), BMP6 (1ng/mL R&D Systems, 6325-BM), cyclosporine A (1µM Tocris Biosciences #1101), DMH1 (5µM CAS No 1206711-16-1) or with DMEM/2%HS (CTR) differentiation medium for 24h to measure their diameter. For the signaling experiments, two hours prior to treatment, the DMEM differentiation medium without serum was changed, followed by 1h of treatment with FK506 (1 µg/mL) or BMP6 (30ng/mL). The protein ubiquitination flow was measured by treating in C2C12 myotubes with FK506 1µg/mL, Activin A 1ng/mL (ACTA), and the combination of the two, with and without MG132 proteasome inhibitor (Senta Cruz Biotechnology, SC-351846), 1µM for 1h.
(§2) C2C12 myotubes were lysed in RIPA lysis buffer (150mM NaCl, 50mM Tris-HCl, 0.5% sodium deoxycholate, 1.0% Triton X-100, 0.1% SDS, and 1mM EDTA) with protease and phosphatase inhibitors (Roche, #0490837001, #11697498001). The protein concentration was determined using the BCA assay (Thermo Fisher Scientific). 15µg of proteins from cell lysates were loaded for performing SDS-PAGE, then transferred onto PVDF membrane for immunoblotting analysis. The primary antibodies used are: SMAD1 (Cell Signaling, #9743), P-SMAD1/5 (Cell Signaling, #13820T), vinculin (Cell Signaling #4650), ubiquitin (Abcam, #7780).

immune populations = test: FACS of immune populations in blood, spleens and tumors of C26 mice; type: in vivo; settings: FK506 0.02 mg/Kg daily oral
Description: The blood was extracted and incubated with erythrocyte lysis buffer for 10 minutes at room temperature. After washing with PBS, the cells were collected, incubated with Fc-receptor blocker (anti-CD16/CD32 antibody, BD Bioscience #101302) and stained for 30 minutes at 4°C with the antibodies.
The primary tumors were extracted, crushed, and digested with collagenase IV (1mg/mL) (Sigma Aldrich #C4-28) in RPMI-1640 at 37°C for 1h. After washing the tissues with RPMI-1640/10% FBS, the suspension was passed through a 70-µm pore filter, centrifuged at 1400rpm for 10 minutes and incubated with the erythrocyte lysis buffer (155 mM NH4Cl, 15.8 mM Na2CO3, 1 mM EDTA, pH 7.3) for 10 minutes at room temperature. After washing with RPMI-1640/10% FBS, 1 million cells were resuspended in PBS, treated with Fc-receptor blocker (anti-CD16/CD32 antibody, BD Bioscience #101302) and stained for 30 minutes at 4°C with the antibodies.

Balb C mice = test: Hypertrophy experiment in Balb C mice without tumor, oral treatment; type: in vivo
Description: (§3) FK506 (Cayman Chemical, #10007965) was dissolved in DMSO (5mg/mL) and then diluted in a 5% glucose and water solution for oral administration in order to reach the final concentration of 0.02mg/kg. All the mice were subjected to one day of treatment, prior to inoculation of colon-26 (C26) adenocarcinoma cells into the right flank of three-month-old Balb C females (Charles River #028) (0.7x10^6 cells/mouse). All the mice were treated daily with FK506 (0.02 mg/Kg) or 5% glucose buffer DMSO vehicle.
(§4) The gastrocnemii, tumors, and subcutaneous and inguinal adipose tissue were isolated, weighed, and normalized for the tibia length of each mouse.
4-month-old Balb C females were treated orally every day for 4 weeks (5 days per week), with 0.02mg/Kg/day FK506 in 5% glucose solution or with vehicle (CTR). The maximum strength was measured weekly with the Grip Strength Test.

[4] = tested on: BMP-SMAD1/5/8 signaling pathway; settings: hepatocytes; cited from earlier work
[5] = tested on: Colon-26 (C26) murine tumor cachexia model; test: Colon-26 (C26) tumor cachexia model, oral treatment; type: in vivo; settings: C26 mice, FK506 0.02 mg/Kg daily oral
Description: as §3
Maximum muscle strength was measured on the day of inoculation (day 0) and the day of sacrifice (day 11) using the Grip Strength Test (Bioseb).
as §4
The fresh gastrocnemii were frozen in liquid nitrogen-cooled isopentane and stored at -80°C. 7µm cross-sections were performed using a cryostat. Immunofluorescence was performed by securing the tissues in 4% PFA, blocking with […] in PBS before incubating with the primary antibody for laminin (sc-59854), and with the secondaries (ALEXA488) and DAPI (Abcam 228549). The photographs were taken with a fluorescence microscope to evaluate the cross-sectional area of the fibers.
The total RNA from the frozen tissues was extracted with TRIzol reagent (Invitrogen) following the manufacturer's instructions. 0.5-1µg of total RNA were retrotranscribed using High Capacity cDNA Reverse Transcriptase kit (Applied Biosystems). The cDNA was analyzed with Real Time Quantitative PCR (ABI PRISM 7900HT FAST Real-Time PCR system, Applied Biosystems) using Luna Universal Probe qPCR master mix (Nebb) and Universal Probe Library system (Roche Applied Science). The relative mRNA levels were calculated using the 2-ΔΔCT method and normalizing for the GAPDH levels. The following primers were used: Atrogin1 F: 5'-[…]-3' (SEQ ID No. 1), R: 5' […]-3' (SEQ ID No. 2); Murf1 F: 5'[…]-3' (SEQ ID No. 3), R: 5'-tcgtcttcgtgttccttgc-3' (SEQ ID No. 4); Musa1 F: 5'-gagaagccagggtttgagc-3' (SEQ ID No. 5), R: 5'-[…]-3' (SEQ ID No. 6); Cathepsin L F: 5'-[…]-3' (SEQ ID No. 7), R: 5'-[…]-3' (SEQ ID No. 8); FKBP12 F: 5'-atgggagtgcaggtggag-3' (SEQ ID No. 9), R: 5'-[…]-3' (SEQ ID No. 10). GAPDH F: 5'-[…]-3' (SEQ ID No. 11), R: 5'-[…]-3' (SEQ ID No. 12).

C2C12 myotubes [6] = test: Protein ubiquitination flow after proteasome inhibition (MG132) in C2C12 myotubes; type: cell-based, murine; settings: FK506 1µg/mL plus Activin A 1ng/mL, with and without MG132 1µM, 1h
Description: as §1, §2

With `CC(C)Oc1ccc(-c2cnc3c(-c4ccnc5ccccc45)cnn3c2)cc1` [DMH1] the “effect of DMH1 on tacrolimus-induced hypertrophy and protection from C26 CM-induced atrophy (myotube diameter)” value (C2C12 myotubes [1]; DMH1 5µM, FK506 1µg/mL, 10% C26 CM, 24h) was “nullifies both the hypertrophic effect of tacrolimus and the protection of C26 (C26 CM) tumor medium-induced atrophy”.
In the case of `c1ccc2c(-c3cnn4cc(-c5ccc(N6CCNCC6)cc5)cnc34)ccnc2c1` [LDN-193189], the “atrophy in the myofibers of the tibialis anterior” value (tibialis anterior) is given as 21% and the “baseline phosphorylation levels of Smad1/5/8” value (tibialis anterior) is given as “reduction in baseline phosphorylation levels of Smad1/5/8”.
For `C=CC[C@@H]1/C=C(\C)C[C@H](C)C[C@H](OC)[C@H]2O[C@@](O)(C(=O)C(=O)N3CCCC[C@H]3C(=O)O[C@H](/C(C)=C/[C@@H]3CC[C@@H](O)[C@H](OC)C3)[C@H](C)[C@@H](O)CC1=O)[C@H](C)C[C@@H]2OC` [tacrolimus], the “muscle atrophy at high immunosuppressive doses” value [2] is listed as “induces muscle atrophy”, the BRE-Luc reporter activation [3] is listed as “capable of exceeding the BMP6 positive control in reporter activation” and the “phosphorylation levels of SMAD1/5” value (SMAD1/5; 1h, without stimulation by any extracellular ligand) is listed as “capable of increasing the phosphorylation levels of SMAD1/5”. For the same compound, the “effect of tacrolimus on phosphorylation of the Smad1/5/8 proteins under ALK2 silencing” value (SMAD1/5; siALK2-transfected C2C12 myotubes) was “nullifies the effect of tacrolimus”, the “amount and state of activation of the main immune populations” value (immune populations) was “has no effect on these parameters” and the “maximum muscle strength (Grip Strength test)” value (Balb C mice; 0.02mg/Kg/day oral, 4 weeks, day 29, versus vehicle (CTR)) was “significantly increases maximum muscle strength”. The muscle mass (Balb C mice; oral non-immunosuppressive doses, 11 days) was “capable of increasing the mass of the quadriceps”, the “phosphorylation of SMAD 1/5/8 proteins” value [4] was “increasing the phosphorylation of SMAD 1/5/8 proteins” and the “transcription of their epcidin target” value [4] was “increasing”. For the same compound, the body weight loss ([5]; 11 days) was “capable of preventing”, the “fat loss (subcutaneous and inguinal adipose tissue)” value ([5]; 11 days) was “capable of preventing” and the “weight of the tumor” value ([5]; at sacrifice) was “without altering the weight of the tumor”. For the same compound, the “maximum muscle strength (Grip Strength test)” value ([5]; end of the experiment (day 11)) was “increased maximum muscle strength”, the “expression of atrogens (Atrogin 1, MuRF-1, Musa1, Cathepsin L mRNA) in the gastrocnemii” value ([5]; normalized for GAPDH) was “reduced expression of all the atrogens” and the “muscle atrophy in terms of muscle fiber diameter” value ([5]; gastrocnemius cross-section) was “capable of preventing muscle atrophy”. For the same compound, the “muscle atrophy in terms of skeletal muscle weight” value ([5]; gastrocnemius weight normalized for tibia length) was “capable of preventing muscle atrophy”, the “C26 CM-induced atrophy (myotube diameter)” value (C2C12 myotubes [1]; 24h, listed as FK506) was “capable of preventing C26 CM-induced atrophy” and the “C26 CM-induced atrophy (myotube diameter)” value (C2C12 myotubes [1]; 24h, listed as Tacrolimus) was “capable of preventing”. The “hypertrophy (myotube diameter)” value (C2C12 myotubes [1]; FK506 1µg/mL, 24h, listed as FK506) was “capable of inducing significant hypertrophy”, the “hypertrophy (myotube diameter)” value (C2C12 myotubes [1]; FK506 1µg/mL, 24h, listed as Tacrolimus) was “induces levels of hypertrophy comparable to BMP6” and the “ACTA-induced atrophy (myotube diameter)” value (C2C12 myotubes [1]; FK506 1µg/mL, Activin A 1ng/mL, 24h) was “capable of preventing”. The “effect of tacrolimus on myotube diameter under ALK2 silencing” value (C2C12 myotubes [1]; siALK2-transfected C2C12 myotubes, FK506 1µg/mL) was “nullifies the effect of tacrolimus” and the “ACTA-induced increase in protein ubiquitination” value (C2C12 myotubes [6]) was “completely reversed”.
